Assay results taken from US12187722B2, “Small molecule inhibitors of TEAD transcription factors” (The General Hospital Corporation, priority 2019, dated 2025).
“And” between values parts separate entries of the source, which are not always exact repeats. Identical values can stand only once.

Target: TEAD2 (Homo sapiens (Human), UniProt Q15562)
Assay: In vitro palmitoylation (TEAD2 autopalmitoylation, streptavidin blot)
Assay type: biochemical
Details: compound at 10 μM
Protocol: Recombinant GST-TEAD2 or His6TEAD2 (500 ng) protein was pre-incubated with the compounds at indicated concentrations for 15 min. and then incubated with 1 μM of alkyne palmitoyl-5 CoA (Cayman Chemical) for 30 min or 50 mM MES, pH 6.4, followed by Click reaction with biotin-azide as previously described (Zheng, B. et al., J. Am. Chem. Soc., 2013, 135, 7082-7085). Click reaction was performed with 100 μM biotin-azide, 1 mM tris(2-carboxyethyl) phosphine hydrochloride (TCEP), 100 μM tris[(1-benzyl-1H-1,2,3-triazol-4-yl) methyl] amine (TBTA) and 1 mM CuSO4 for 1 h at RT.
The reactions were terminated by the addition of 12 μL of 6×SDS-sample loading buffer (50 mM Tris-HCl, pH 6.8, 6% SDS, 48% Glycerol, 0.03% Bromophenol Blue, 30 mM EDTA, 9% MeSH). Samples were analysed by SDS-PAGE and Western blot was performed by probing with streptavidin HRP and histidine HRP antibodies independently. Bands intensity obtained from streptavidin blot were quantified using BIORAD, Gel doc system and the percentage of inhibition of Tead2 auto palmitoylation is determined by comparing to the DMSO control treated samples.
These compounds were tested for activity in inhibiting TEAD2 palmitoylation in the assay described above.

Chain of TEAD2 (Q15562 whole entry): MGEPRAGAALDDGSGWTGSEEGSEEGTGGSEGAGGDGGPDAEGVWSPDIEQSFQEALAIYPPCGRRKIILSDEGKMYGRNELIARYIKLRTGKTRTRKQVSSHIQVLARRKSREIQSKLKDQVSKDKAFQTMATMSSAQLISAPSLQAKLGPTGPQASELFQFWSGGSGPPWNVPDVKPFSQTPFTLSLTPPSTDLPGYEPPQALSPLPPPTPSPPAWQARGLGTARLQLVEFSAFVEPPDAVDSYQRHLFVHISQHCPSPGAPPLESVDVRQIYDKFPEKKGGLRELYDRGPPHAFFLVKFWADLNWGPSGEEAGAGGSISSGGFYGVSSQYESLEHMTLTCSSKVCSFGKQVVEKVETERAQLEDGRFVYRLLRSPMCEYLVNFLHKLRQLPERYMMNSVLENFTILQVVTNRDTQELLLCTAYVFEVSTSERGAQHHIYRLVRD

Compound | inhibition at 10 µM [%]
O=C(Nc1ccc(C23CC4CC(CC(C4)C2)C3)cc1)Nc1ccc2nc[nH]c2c1 | 20
O=C(CN1CCC[C@H]1C(=O)O)Nc1ccc(C23CC4CC(CC(C4)C2)C3)cc1 | 8

Same assay, conditions: compound at 10 μM; Table 2

Compound | inhibition at 10 µM [%] | % of inhibition of TEAD2 palmitoylation at 10 μM
Cc1ccccc1-c1ccc(Nc2ccc(Nc3ccccc3C(=O)O)cc2)c(Cl)c1 [Compound 51] | 79 | –
CN(c1ccc(N(C)c2ccc(C34CC5CC(CC(C5)C3)C4)cc2)c(C(F)(F)F)c1)c1ccccc1C(=O)O [Compound 158] | 100 | –
O=C(O)c1cccc(NC(=O)c2cccc(Nc3ccc(C45CC6CC(CC(C6)C4)C5)cc3)c2)c1 [Compound 240] | 62 | –
CNC(=O)c1ccccc1Nc1ccc(Nc2ccc(C34CC5CC(CC(C5)C3)C4)cc2Cl)cc1 [compound 276] | 52 | –
O=C(O)C1CCCN(Cc2ccc(Nc3ccc(C45CC6CC(CC(C6)C4)C5)cc3Cl)cc2)C1 (centres unmarked) [Compound 143] | 22 | –
O=C(O)c1ccccc1Nc1cc(Nc2ccc(C34CC5CC(CC(C5)C3)C4)cc2)cc(C(F)(F)F)c1 [Compound 26] | 90 | –
CCCCN(c1ccccc1)c1ccc(Nc2ccc(Nc3ccccc3C(=O)O)cc2)c(Cl)c1 [Compound 258] | 0 | –
O=C(O)C1CCCCC1Nc1ccc(Nc2ccc(C34CC5CC(CC(C5)C3)C4)cc2Cl)cc1 (centres unmarked) [Compound 46] | 76 | –
CC(C)(C)OC(=O)N(c1ccc(Nc2ccc(C34CC5CC(CC(C5)C3)C4)cc2Cl)cn1)c1ccccc1C(=O)O [Compound 76] | 34 | –
CC12CC3CC(C)(C1)CC(c1ccc(NC(=O)c4ccc(Nc5cccc(C(=O)O)n5)cc4)cc1)(C3)C2 [Compound 227] | 58 | –
O=C(O)C1CCCC1Nc1cc(Nc2ccc(C34CC5CC(CC(C5)C3)C4)cc2Cl)cc(C(F)(F)F)c1 (centres unmarked) [Compound 64] | 0 | –
Cc1ccccc1Nc1ccc(Nc2ccc(C34CC5CC(CC(C5)C3)C4)cc2)cc1 [Compound 13] | 26 | –
O=C(O)c1ccccc1C(=O)Nc1cccc(Nc2ccc(C34CC5CC(CC(C5)C3)C4)cc2)c1 [compound 292] | 97 | –
O=C(O)C1=C(C(=O)Nc2ccc(C34CC5CC(CC(C5)C3)C4)cc2)CCC1 [compound 289] | 88 | –
O=C(O)c1ccccc1Nc1ccc(S(=O)(=O)Nc2ccc(C34CC5CC(CC(C5)C3)C4)cc2)cc1 [Compound 190] | 85 | –
O=C(Nc1ccc(C23CC4CC(CC(C4)C2)C3)cc1)c1ccc(Nc2ncccc2C(=O)O)cc1 [Compound 145] | – | 61% and 84%
O=C(O)c1cccc(Nc2cc(C(F)(F)F)cc3[nH]c4ccc(C56CC7CC(CC(C7)C5)C6)cc4c23)n1 [Compound 154] | 58 | 43%
O=C(NC12CC3CC(CC(C3)C1)C2)c1ccc(Nc2ccc(Nc3ccccc3C(=O)O)cc2)cc1 [Compound 176] | – | 89%
O=C(NC12CC3CC(CC(C3)C1)C2)c1ccc(Nc2ccc(Nc3cccc(C(=O)O)n3)cc2)cc1 [Compound 219] | 0 | –
CCCCN(CCCC)Cc1ccc(Nc2ccc(Nc3ccccc3C(=O)O)cc2)cc1 [Compound 169] | 42 | –
O=C(O)C1CCCN1Cc1ccc(Nc2ccc(C34CC5CC(CC(C5)C3)C4)cc2Cl)cc1 (centres unmarked) [Compound 103] | 53 | –
CC(C)c1ccccc1-c1ccc(NC(=O)c2ccc(Nc3ccccc3C(=O)O)cc2)cc1 [Compound 211] | 67 | –

Compound | inhibition at 10 µM [%] | % of inhibition of TEAD2 palmitoylation at 10 μM
CN(C(=O)c1ccc(Nc2ccc(C34CC5CC(CC(C5)C3)C4)cc2)cc1)c1ccccc1C(=O)O [Compound 221] | 61 | –
O=C(O)c1cnn(Cc2ccc(Nc3ccc(C45CC6CC(CC(C6)C4)C5)cc3Cl)cc2)c1 [Compound 121] | 80 | –
O=C(O)[C@@H]1CCCN1C(=O)c1ccc(Nc2ccc(C34CC5CC(CC(C5)C3)C4)cc2Cl)cc1 [Compound 48] | 87 | –
O=C(O)c1cccc(Nc2cccc(C(=O)Nc3ccc(C45CC6CC(CC(C6)C4)C5)cc3)c2)c1 [Compound 235] | 84 | –
O=C(Nc1ccc(C23CC4CC(CC(C4)C2)C3)cc1)c1ccc(Nc2cccc(C(=O)O)n2)cc1 [Compound 148] | 56 | 69%
O=C(O)c1nccnc1Nc1ccc(Nc2ccc(C34CC5CC(CC(C5)C3)C4)cc2Cl)cc1 [Compound 86] | 54 | –
O=C(Nc1ccc(Nc2ncccc2C(=O)O)cc1)Nc1ccc(C23CC4CC(CC(C4)C2)C3)cc1 [Compound 180] | 81 | –
O=C(NC12CC3CC(CC(C3)C1)C2)c1ccc(Nc2ccccc2C(=O)O)cc1 [Compound 167] | 43 | –
O=C(O)C1CCCN(C(=O)c2ccc(Nc3ccc(C45CC6CC(CC(C6)C4)C5)cc3Cl)cc2)C1 (centres unmarked) [Compound 123] | 88 | –
O=C(O)c1cccnc1CN1CCN(Cc2ccc(C34CC5CC(CC(C5)C3)C4)cc2Cl)CC1 [Compound 107] | 14 | –
CCCCN(c1ccccc1)c1ccc(Nc2ccc(Nc3ccccc3C(=O)O)cc2)cc1 [Compound 174] | 85 | –
O=C(O)Cn1ccc2ccc(Nc3ccc(C45CC6CC(CC(C6)C4)C5)cc3Cl)cc21 [Compound 126] | 86 | –
O=C(O)c1cccnc1Nc1ccc(S(=O)(=O)Nc2ccc(C34CC5CC(CC(C5)C3)C4)cc2Cl)cc1 [Compound 261] | 98 | –
COC(=O)c1ccccc1Nc1ccc(C(=O)Nc2ccc(C34CC5CC(CC(C5)C3)C4)cc2Br)cc1 [Compound 5] | 0 | –
O=C(O)c1cncc(Nc2ccc(Nc3ccc(C45CC6CC(CC(C6)C4)C5)cc3Cl)cc2)c1 [Compound 116] | 91 | –
O=C(O)c1cccnc1Nc1ccc(C23CC4CC(CC(C4)C2)C3)cc1Cl [Compound 60] | 100 | –
O=C1CC[n+]2ccccc2N1c1ccc(Nc2ccc(C34CC5CC(CC(C5)C3)C4)cc2Cl)cc1 [Compound 11] | 0 | –
CC1(C)OC(C(=O)O)C(C(=O)Nc2cc(Nc3ccc(C45CC6CC(CC(C6)C4)C5)cc3Cl)cc(C(F)(F)F)c2)O1 (centres unmarked) [Compound 120] | 79 | –
O=C(Nc1ccc(C23CC4CC(CC(C4)C2)C3)cc1Cl)c1cccc(Nc2ccccc2C(=O)O)c1 [Compound 242] | – | 35% and 58%
O=C(O)c1cccc(Nc2ccc(Oc3ccc(C45CC6CC(CC(C6)C4)C5)cc3Cl)cc2)n1 [Compound 203] | 95 | –
COc1ccc(C(=O)O)c(Nc2ccc(Nc3ccc(C45CC6CC(CC(C6)C4)C5)cc3)cc2)c1 [Compound 251] | 27 | –
CN(c1ccc(C23CC4CC(CC(C4)C2)C3)cc1)S(=O)(=O)c1ccc(Nc2ncccc2C(=O)O)cc1 [Compound 207] | 99 | –

Same assay, conditions: compound at 10 μM; Table 3

Compound | inhibition at 10 µM [%]
COc1ccc(Nc2ccc(N(C)c3nc(C4CCCCC4)cs3)cc2)c(C(=O)O)c1 [CP-597] | 63
CN(c1ccc(Nc2ccc(NS(C)(=O)=O)cc2C(=O)O)cc1)c1ccc(C(F)(F)F)cc1 [CP-613] | 83
Cc1cc(N(C)c2ccc(C3CCCCC3)cc2)ccc1Nc1ccc(F)cc1C(=O)O [CP-625] | 87
Cc1cc(N(C)c2ccc(C3CCCCC3)cc2)ncc1Nc1ccc(OC2CC2)cc1C(=O)O [CP-673] | 15
Cc1cc(N(C)c2ccc(C3CCCCC3)cc2Cl)ccc1Nc1cccc(C(=O)O)n1 [CP-681] | 8
COc1ccc(Nc2ccc(N(C)c3ccc(C(F)(F)F)cc3)cc2C)c(C(=O)O)c1 [CP-563] | 80
COc1ccc(Nc2ccc(N(C)c3ccc(C(F)(F)F)cc3)cc2F)c(C(=O)O)c1 [CP-572] | 72
CNS(=O)(=O)c1ccc(Nc2ccc(N(C)c3ccc(C4CCCCC4)cc3)cc2C)c(C(=O)O)c1 [CP-614] | 83
COc1ccc(Nc2ccc(N(C)c3ccc(C(F)(F)F)cc3)cc2)c(C(N)=O)c1 [CP-605] | 47
CNCc1ccc(Nc2ccc(N(C)c3ccc(C4CCCCC4)cc3)cc2C)c(C(=O)O)c1 [CP-637] | 5
COc1ccc(Nc2ccc(N(C)c3ccc(C4CCC(F)(F)CC4)cc3)cc2)c(C(=O)O)c1 [CP-552] | 74
O=C(O)c1cccc(Nc2cc(Nc3ccc(C4CCCCC4)cc3Cl)cc(C(F)(F)F)c2)c1 [CP-676] | 97
COc1ccc(Oc2ccc(N(C)c3ccc(C(F)(F)F)cc3)cc2)c(C(=O)O)c1 [CP-587] | 36
CN(c1ccc(Nc2ncccc2C(=O)O)cc1)c1ccc(C2CCCCC2)cc1 [CP-558] | 66
Cc1cc(C(=O)Nc2cccc(C(=O)O)c2)ccc1Nc1ccc(C2CCCCC2)cc1 [CP-651] | 85
Cc1cc(C(=O)Nc2ccc(C3CCCCC3)cc2)ccc1Nc1cccc(C(=O)O)n1 [CP-642] | 55
COc1ccc(Nc2ccc(N(C)c3ccc(C4CC5CCC4C5)cc3)cc2C)c(C(=O)O)c1 (centres unmarked) [CP-577] | 79
COc1ccc(Nc2ccc(N(C)c3ccc(C4CCCCC4)cn3)cc2)c(C(=O)O)c1 [CP-581] | 40
Cc1cc(N(C)c2ccc(C3CCCCC3)cc2)ccc1Nc1ccc(C2CC2)cc1C(=O)O [CP-630] | 39
COc1ccc(Nc2ccc(N(C)c3cc(C4CCCCC4)nn3C)cc2)c(C(=O)O)c1 [CP-618] | 31
